Where two headings read alike, the source gives them in different places.
Experiments:
[1] = In vivo pharmacokinetic evaluation in mouse; parameters: species or system female balb/c nude mice; details: female, balb/c nude, plasma, 3 mg/kg IV
OVCAR-3 xenografts = assay: 28 day in vivo efficacy in OVCAR-3 xenografts; parameters: species or system female NOD SCID mice; details: 10 and 30 mg/kg QD, 28 days
Procedure: Experiments were performed in female NOD SCID mice (GenPharmatech Co.). Animals were allowed to acclimate for 7 days before the study. The general health of the animals were evaluated by a veterinarian, and complete health checks were performed prior to the study. General procedures for animal care and housing were in accordance with the standard, Commission on Life Sciences, National Research Council, Standard Operating Procedures (SOPs) of Pharmaron, Inc. The mice were kept in laminar flow rooms at constant temperature and humidity with 3-5 mice in each cage. Animals were housed in polycarbonate cages which had dimensions of 300×180×150 mm^3 and in an environmentally monitored, well-ventilated room maintained at a temperature of 23±3° C. and a relative humidity of 40%-70%. Fluorescent lighting provided illumination approximately 12 hours per day. […]
The OVCAR-3 (ATCC) tumor cell lines were maintained in vitro as a monolayer in RPMI 1640 medium supplemented with 20% heat inactivated FBS, at 37° C. in an atmosphere of 5% CO2 in air. The tumor cells were sub-cultured, not exceeding 4-5 passages, and cells growing in an exponential growth phase were harvested and counted for tumor inoculation. […]
The measurement of tumor size was conducted with a caliper and recorded twice per week. […]

KIF18A = target: T1, KIF18A (Homo sapiens, UniProt Q8NI77); assay: KIF18A Biochemical Assay (ATPase, ADP-Glo)
T1 construct: A solution of KIF18A (0.4 nM, 5 μL/well; 1-367) in assay buffer
T1 sequence (Q8NI77 1-367): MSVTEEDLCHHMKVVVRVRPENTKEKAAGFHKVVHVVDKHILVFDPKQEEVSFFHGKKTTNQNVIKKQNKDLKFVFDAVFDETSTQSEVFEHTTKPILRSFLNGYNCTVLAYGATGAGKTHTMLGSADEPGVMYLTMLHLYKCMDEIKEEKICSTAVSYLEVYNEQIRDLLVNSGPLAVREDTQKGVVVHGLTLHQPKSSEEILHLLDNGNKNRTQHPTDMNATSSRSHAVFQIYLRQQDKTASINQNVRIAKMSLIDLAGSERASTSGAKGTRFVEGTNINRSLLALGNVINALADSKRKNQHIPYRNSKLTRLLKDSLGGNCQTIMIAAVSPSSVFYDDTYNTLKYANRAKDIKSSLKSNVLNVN

[2] = Caco-2 permeation assay (bidirectional permeability); format: in vitro ADME; details: human, Caco-2, pH 7.4
Procedure: Samples were analyzed through LC/MS/MS for estimating the apparent permeability coefficients (Papp) of compounds across Caco-2 cell monolayers. Caco-2 cells (American Type Culture Collection) were incubated and seeded onto HTS Transwell-96 Well Permeable Supports (Corning Corporation) for 14 days using a cell medium consisting of Dulbecco's Modified Eagle's Medium (DMEM) with high glucose and L-glutamine supplemented with 10% FBS, 1× penicillin-streptomycin mixture and 1×non-essential amino acids (NEAA). Cell monolayer integrity was measured using an automated tissue resistance measuring system (World Precision Instruments). Stock solutions of compounds and control compounds in DMSO were diluted with HBSS (10 mM HEPES, pH 7.4) to reach a final concentration of 5 μM with a final concentration of DMSO<0.1%. HBSS was then removed after 30 minutes of preincubation, and 75 μL of test compound was added to the apical compartment of the Transwell insert. The basolateral compartment was filled with 235 μL of HBSS (10 mM HEPES, pH 7.4) containing 2% BSA. Rate of drug transport in the basolateral to apical direction was obtained by adding 235 μL of test compound to the receiver plate wells (basolateral compartment) and filling with 75 μL of HBSS (10 mM HEPES, pH 7.4) containing 2% BSA. Time 0 samples were prepared by transferring 25 μL of […] working solution to wells of the 96-deepwell plate containing 25 μL HBSS (10 mM HEPES and 2% BSA, pH 7.4), followed by the addition 200 μL of cold methanol containing appropriate internal standards (100 nM alprazolam, 200 nM labetalol, 200 nM caffeine and 200 nM diclofenac). After incubating at 37° C. for 2 h, 25 μL samples from donor sides (apical compartment) were transferred to a 96-well plate containing 25 μL HBSS (10 mM HEPES and 2% BSA, pH 7.4). 25 μL samples from receiver sides (basolateral compartment) were removed and transferred to a new plate containing 25 μL HBSS (10 mM HEPES, pH 7.4). 200 μL of cold methanol containing internal standards (100 nM alprazolam, 200 nM labetalol, 200 nM caffeine and 200 nM diclofenac) was added to terminate the reaction. Samples were vortexed for 5 minutes and then centrifuged at 3,220 g for 40 minutes. An aliquot of 100 μL of the supernatant is mixed with 100 μL of ultra-pure water for LC-MS/MS analysis. All incubations are performed in duplicate. Solutions were discarded from the transwell plate. 100 μL Lucifer Yellow solution ([…] in HBSS) was added to each well of transwell insert and 300 μL of HBSS to each well of receiver. After incubating at 37° C. for 30 minutes, 80 μL was aliquoted from each well of apical and basolateral sides to a solid black plate. The plate was then read with Tecan Infinite™ M 200 (Excitation/Emission wavelength […]).
All calculations were carried out using Microsoft Excel. Peak areas were determined from extracted ion chromatograms. The leakage of Lucifer Yellow, in unit of percentage (%), can be calculated using the following equation: […]
LY leakage of <1% is acceptable to indicate the well-qualified Caco-2 monolayers. The apparent permeability coefficient (Papp), in units of centimeter per second, can be calculated for Caco-2 drug transport assays using the following equation: […]
Where VA is the volume (in mL) in the receiver well (0.235 mL for Ap→Bl flux and 0.075 mL for Bl→Ap flux), Area is the surface area of the membrane (0.143 cm^2 for HTS Transwell-96 Well Permeable Supports), and time is the total transport time in seconds. The efflux ratio can be determined using the following equation: […]
Where Papp (B-A) indicates the apparent permeability coefficient in basolateral to apical direction, and Papp (A-B) indicates the apparent permeability coefficient in apical to basolateral direction.
The recovery can be determined using the following equation: […]

OVCAR-3 cells = assay: In vitro anti-proliferative activity assay in cancer cell line OVCAR-3 (CTG); format: cell-based; details: 7-day assay, read-out: OVCAR-3 cellular antiproliferation assay IC50

SMILES | IC50 (KIF18A) [nM] | efflux ratio at 2 h, 5 μM [2] | IC50 (OVCAR-3 cells; Homo sapiens, OVCAR-3, 168 h) [nM] | clearance [1] [mL/min/kg] | also measured
Cc1cc(NC(=O)c2ccc(NS(=O)(=O)CCO)cc2N2CC[C@@]3(C(F)F)C[C@H]3C2)nc(N2CCC(F)(F)CC2)n1 (single isomer, unassigned) [Example 29b] |  |  |  | 3.3 | Tumor growth (OVCAR-3 xenografts): significant reduction in tumor growth in a dose-dependent manner
Cc1cc(NC(=O)c2c(F)cc(NS(=O)(=O)CCO)cc2N2CC[C@@]3(C)C[C@H]3C2)nc(N2CCC(F)(F)CC2)n1 (single isomer, unassigned) [Example 31b] | < 100 |  |  |  | 
Cc1cc(NC(=O)c2ccc(NS(=O)(=O)CCO)cc2N2CC[C@@]3(F)CC[C@H]3C2)nc(N2CCC(F)(F)CC2)n1 (single isomer, unassigned) [Example 50b] |  |  |  | 0.74 | 
Cc1cc(NC(=O)c2ccc(NS(=O)(=O)CCO)cc2N2CC[Si](C)(C)CC2)nc(C2CCC(F)(F)CC2)n1 [Example 1, N-(2-(4,4-difluorocyclohexyl)-6-methylpyrimidin-4-yl)-2-(4,4-dimethyl-1,4-azasilinan-1-yl)-4-((2-hydroxyethyl)sulfonamido)benzamide] |  |  |  | 3.6 | 
Cc1cc(NC(=O)c2ccc(NS(=O)(=O)CCO)cc2N2CC[Si](C)(C)CC2)nc(N2CCC(F)(F)CC2)n1 [Example 9, N-[2-(4,4-difluoropiperidin-1-yl)-6-methylpyrimidin-4-yl]-2-(4,4-dimethyl-1,4-azasilinan-1-yl)-4-(2-hydroxyethanesulfonamido)benzamide] |  |  |  | 1.7 | 
C[Si]1(C)CCN(c2cc(NS(=O)(=O)CCO)ccc2C(=O)Nc2ccnc(OCCC(F)(F)F)n2)CC1 [Example 10] |  | < 10 |  |  | 
O=C(Nc1ccnc(N2CCC(F)(F)CC2)n1)c1c(F)cc(NS(=O)(=O)CCO)cc1N1CC[C@@]2(C(F)F)C[C@H]2C1 [Example 84] |  | < 10 |  |  | IC50 (OVCAR-3 cells): 100 to 500 nM
Cc1cc(NC(=O)c2ccc(NS(=O)(=O)CCO)cc2N2CC[C@@]3(C(F)(F)F)C[C@H]3C2)nc(N2CCC(F)(F)CC2)n1 [Example 85] | < 100 |  | 100 to 500 |  | 
Cc1cc(NC(=O)c2ccc(NS(=O)(=O)CCO)cc2N2CC[C@]3(C(F)(F)F)C[C@@H]3C2)nc(N2CCC(F)(F)CC2)n1 [Example 86] | < 100 | < 10 | 100 to 500 |  | 
Cc1cc(NC(=O)c2ccc(NS(=O)(=O)N(C)CCO)cc2N2CC[Si](C)(C)CC2)nc(C2CCC(F)(F)CC2)n1 [Example 134] | < 100 | < 10 | 100 to 500 |  | 

More lines, main results first:

IC50 (KIF18A) [nM] | efflux ratio at 2 h, 5 μM [2] | IC50 (OVCAR-3 cells; Homo sapiens, OVCAR-3, 168 h) [nM] | SMILES | clearance [1] [mL/min/kg] | also measured
< 100 | < 10 | < 100 | Cc1cc(NC(=O)c2ccc(NS(=O)(=O)CCO)cc2N2CC[C@]3(C)C[C@@H]3C2)nc(C2CCC(F)(F)CC2)n1 [Example 62] |  | 
< 100 |  | < 100 | Cc1cc(NC(=O)c2ccc(NS(=O)(=O)CCO)cc2N2CC[C@@]3(C)C[C@H]3C2)nc(C2CCC(F)(F)CC2)n1 [Example 63] |  | 
100 to 500 | < 10 | 100 to 500 | Cc1cc(NC(=O)c2ccc(NS(=O)(=O)NCCO)cc2N2CC[Si](C)(C)CC2)nc(C2CCC(F)(F)CC2)n1 [Example 117] |  | 

Reference: patent US20260062430A1, “INHIBITORS OF KIF18A AND USES THEREOF” (ACCENT THERAPEUTICS, INC., priority 2022, published 2026)
